# According to patent publication US7732449B2, “Inhibitors of cathepsin S” (IRM LLC, priority 2003, dated 2010):
# Read-outs that look alike come from different tables or passages of the source.
# Tests used:
# Assay type in all cases: biochemical
# Cathepsin L = Cathepsin L (Homo sapiens, UniProt P07711); assay: Cathepsin L inhibition, fluorogenic peptide substrate kinetic assay (selectivity); conditions: ratio of cathepsin L inhibition constant to cathepsin S inhibition constant
# Cathepsin B = Cathepsin B (Homo sapiens, UniProt P07858); assay: Cathepsin B inhibition, fluorogenic peptide substrate kinetic assay (selectivity); conditions: ratio of cathepsin B inhibition constant to cathepsin S inhibition constant;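 further: value is the cathepsin B inhibition constant divided by the cathepsin S one, each from kinetic fluorescence readings (ex 380 nm, em 450 nm) of a 10 µM coumarin peptide substrate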
# Cathepsin K = target: T1, Cathepsin K (Homo sapiens, UniProt P43235); assay: Cathepsin K inhibition, fluorogenic peptide substrate kinetic assay (selectivity); conditions: ratio of cathepsin K inhibition constant to cathepsin S inhibition constant
# T1 sequence (P43235 115-329): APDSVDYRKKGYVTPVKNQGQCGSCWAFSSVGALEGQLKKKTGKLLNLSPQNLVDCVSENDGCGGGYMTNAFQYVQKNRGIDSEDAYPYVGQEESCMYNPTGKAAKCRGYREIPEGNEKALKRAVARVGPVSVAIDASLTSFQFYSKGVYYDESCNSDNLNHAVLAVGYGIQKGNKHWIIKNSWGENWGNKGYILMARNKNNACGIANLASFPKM
# Cathepsin S = Cathepsin S (Homo sapiens, UniProt P25774); assay: Cathepsin S inhibition, fluorogenic peptide substrate kinetic assay;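 further: cleavage rate of a coumarin-labelled peptide substrate (50 µM) read as fluorescence increase at Ex 380 nm and Em 450 nm, relative to inhibitor-free control reactions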
# Sequence of Cathepsin S (P25774 115-331, species assumed): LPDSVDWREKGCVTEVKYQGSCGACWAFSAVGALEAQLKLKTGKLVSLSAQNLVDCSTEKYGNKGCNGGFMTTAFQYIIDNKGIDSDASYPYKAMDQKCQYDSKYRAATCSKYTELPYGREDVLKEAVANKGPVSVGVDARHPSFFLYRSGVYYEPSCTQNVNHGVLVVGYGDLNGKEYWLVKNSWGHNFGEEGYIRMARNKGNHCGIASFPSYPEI
# [1] = Cathepsin S inhibition constant, pH5.5, 20 minutes preincubation at room temperature, read-out: Ki Cat. S
# Sequence of Cathepsin L (P07711 114-333, species assumed): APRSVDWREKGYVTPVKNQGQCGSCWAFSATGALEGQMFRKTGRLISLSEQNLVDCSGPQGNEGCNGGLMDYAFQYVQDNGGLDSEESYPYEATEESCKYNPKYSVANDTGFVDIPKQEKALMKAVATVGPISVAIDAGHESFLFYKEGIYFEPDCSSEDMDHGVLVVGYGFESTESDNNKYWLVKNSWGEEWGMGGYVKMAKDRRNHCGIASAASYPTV
Compound,Selectivity for Cat. S over Cat. L (Cathepsin L),Selectivity for Cat. S over Cat. B (Cathepsin B),Selectivity for Cat. S over Cat. K (Cathepsin K),Ki (Cathepsin S; [1]) [nM],Ki (Cathepsin S) [nM]
"C[C@@H](CN1CC(C)(C)c2cc(F)ccc21)NC(=O)[C@H](CC1CCCCC1)NC(=O)N1CCOCC1 [Example 80, (S,S)-Morpholine-4-carboxylic acid {2-cyclohexyl-1-[2-(5-fluoro-3,3-dimethyl-2,3-dihydro-indol-1-yl)-1-methyl-ethylcarbamoyl]-ethyl}-amide]","+ (+, >10)","+++ (+++, >1000)","+++ (+++, >1000)",< 100,–
"COc1ccc([C@H](CC(=O)N2CCOCC2)C(=O)N[C@H](CNc2ccc(OC(F)(F)F)cc2)C(C)C)cc1 [Example 53, 2-(S)-(4-Methoxy-phenyl)-N-{2-methyl-1-(S)-[(4-trifluoromethoxy-phenylamino)-methyl]-propyl}-4-morpholin-4-yl-4-oxo-butyramide]","++ (++, >100)","++ (++, >100)","++ (++, >100)",–,100 to 1000
"O=C(NCCNc1ccc(F)cc1)O[C@@H](CC1CCCCC1)C(=O)N1CCOCC1 [Example 5, [2-(4-Fluoro-phenylamino)-ethyl]-carbamic acid 1-(S)-cyclohexylmethyl-2-morpholin-4-yl-2-oxo-ethyl ester]","+ (+, >10)","+ (+, >10)","+ (+, >10)",1000 to 10000,–
"COc1ccc(NCCNC(=O)[C@H](CC2CCCCC2)NC(=O)N2CCOCC2)cc1 [Example 4, Morpholine-4-carboxylic acid {2-cyclohexyl-1-(S)-[2-(4-methoxy-phenylamino)-ethylcarbamoyl]-ethyl}-amide]","+ (+, >10)","+++ (+++, >1000)","++ (++, >100)",< 100,–
"CC(C)[C@@H](CN1CC(C)(C)c2cc(F)ccc21)NC(=O)O[C@@H](CS(=O)(=O)Cc1ccccc1)C(=O)N1CCOCC1 [Example 110, [1-(S)-(5-Fluoro-3,3-dimethyl-2,3-dihydro-indol-1-ylmethyl)-2-methyl-propyl]-carbamic acid 2-morpholin-4-yl-2-oxo-1-(R)-phenylmethanesulfonylmethyl-ethyl ester]","+ (+, >10)","+ (+, >10)","+ (+, >10)",1000 to 10000,–
"C[C@@H](CN1c2ccc(F)cc2CC1(C)C)NC(=O)O[C@@H](CC1CCCCC1)C(=O)N1CCSCC1 [Example 96, [2-(5-Fluoro-2,2-dimethyl-2,3-dihydro-indol-1-yl)-1-(S)-methyl-ethyl]-carbamic acid 1-(S)-cyclohexylmethyl-2-oxo-2-thiomorpholin-4-yl-ethyl ester]","+ (+, >10)","+ (+, >10)","+ (+, >10)",1000 to 10000,–
"CC1(C)CN(C[C@@H](NC(=O)[C@@H](CC(=O)N2CCOCC2)c2ccc(C(F)(F)F)cc2)C2CC2)c2ccc(F)cc21 [Example 69, N-[1-(S)-Cyclopropyl-2-(5-fluoro-3,3-dimethyl-2,3-dihydro-indol-1-yl)-ethyl]-4-morpholin-4-yl-4-oxo-2-(S)-(4-trifluoromethyl-phenyl)-butyramide]","++ (++, >100)","++ (++, >100)","+ (+, >10)",100 to 1000,–
"C[C@@H](CN1c2ccc(F)cc2CC1(C)C)NC(=O)O[C@@H](CC1CCCCC1)C(=O)N1CCN(S(C)(=O)=O)CC1 [Example 95, [2-(5-Fluoro-2,2-dimethyl-2,3-dihydro-indol-1-yl)-1-(S)-methyl-ethyl]-carbamic acid 1-(S)-cyclohexylmethyl-2-(4-methanesulfonyl-piperazin-1-yl)-2-oxo-ethyl ester]","+ (+, >10)","+ (+, >10)","+ (+, >10)",1000 to 10000,–
"C[C@@H](CNc1ccc(OC(F)(F)F)cc1)NC(=O)[C@@H](CC(=O)N1CCS(=O)(=O)CC1)CC1CCCCC1 [Example 58, 2-(R)-Cyclohexylmethyl-4-(1,1-dioxo-thiomorpholin-4-yl)-N-[1-(S)-methyl-2-(4-trifluoromethoxy-phenylamino)-ethyl]-4-oxo-butyramide]","+ (+, >10)","++ (++, >100)","++ (++, >100)",100 to 1000,–
"O=C(NCCN1CCc2cc(F)ccc21)[C@H](CC1CCCCC1)NC(=O)N1CCOCC1 [Example 2, Morpholine-4-carboxylic acid {2-cyclohexyl-1-(S)-[2-(5-fluoro-2,3-dihydro-indol-1-yl)-ethylcarbamoyl]-ethyl}-amide]","+ (+, >10)","+++ (+++, >1000)","++ (++, >100)",< 100,–
"CC[C@@H](CN1CC(C)(C)c2cc(F)ccc21)NC(=O)O[C@@H](CC1CCCCC1)C(=O)N1CCOCC1 [Example 92, (S,S)-[1-(5-Fluoro-3,3-dimethyl-2,3-dihydro-indol-1-yl-methyl)-propyl]-carbamic acid 1-cyclohexylmethyl-2-morpholin-4-yl-2-oxo-ethyl ester]","+++ (+++, >1000)","+++ (+++, >1000)","+++ (+++, >1000)",< 100,–
"CC1(C)CN(C[C@@H](NC(=O)[C@H](CC2CCCCC2)NC(=O)N2CCOCC2)C2CC2)c2ccc(F)cc21 [Example 81, Morpholine-4-carboxylic acid {2-cyclohexyl-1-(S)-[1-(S)-cyclopropyl-2-(5-fluoro-3,3-dimethyl-2,3-dihydro-indol-1-yl)-ethylcarbamoyl]-ethyl}-amide]","+ (+, >10)","+++ (+++, >1000)","++ (++, >100)",< 100,–

# The remaining lines, values ahead:
Selectivity for Cat. S over Cat. L (Cathepsin L),Selectivity for Cat. S over Cat. B (Cathepsin B),Selectivity for Cat. S over Cat. K (Cathepsin K),Ki (Cathepsin S; [1]) [nM],Ki (Cathepsin S) [nM],Compound
"++ (++, >100)","+++ (+++, >1000)","+ (+, >10)",–,< 100,"CCC[C@@H](CNc1ccc(OC(F)(F)F)cc1)NC(=O)[C@@H](CC(=O)N1CCOCC1)CC1CCCC1 [Example 27, 2-(R)-Cyclopentylmethyl-4-morpholin-4-yl-4-oxo-N-{1-(S)-[(4-trifluoromethoxy-phenylamino)-methyl]-butyl}-butyramide]"
"++ (++, >100)","+++ (+++, >1000)","+ (+, >10)",< 100,–,"CC(C)[C@@H](CNc1ccc(OC(F)(F)F)cc1)NC(=O)[C@@H](CC(=O)N1CCOCC1)C1CCCCC1 [Example 35, 2-(S)-Cyclohexyl-N-{2-methyl-1-(S)-[(4-trifluoromethoxy-phenylamino)-methyl]-propyl}-4-morpholin-4-yl-4-oxo-butyramide]"
"++ (++, >100)","++ (++, >100)","++ (++, >100)",–,100 to 1000,"O=C(NCCNc1ccc(OC(F)(F)F)cc1)[C@@H](CC(=O)N1CCOCC1)CC1CCCCC1 [Example 13, 2-(R)-Cyclohexylmethyl-4-morpholin-4-yl-4-oxo-N-[2-(4-trifluoromethoxy-phenylamino)-ethyl]-butyramide]"
"++ (++, >100)","+++ (+++, >1000)","+++ (+++, >1000)",< 100,–,"O=C(N[C@H](CNc1ccc(OC(F)(F)F)cc1)c1ccccc1)[C@H](CCC1CCCC1)CC(=O)N1CCOCC1 [Example 46, 2-(R)-(2-Cyclopentyl-ethyl)-4-morpholin-4-yl-4-oxo-N-[1-(S)-phenyl-2-(4-trifluoromethoxy-phenylamino)-ethyl]-butyramide]"
"+++ (+++, >1000)","+++ (+++, >1000)","++ (++, >100)",–,< 100,"C[C@@H](CNc1ccc(OC(F)(F)F)cc1)NC(=O)[C@H](CCC1CCCCC1)CC(=O)N1CCOCC1 [Example 21, 2-(R)-(2-Cyclohexyl-ethyl)-N-[1-(S)-methyl-2-(4-trifluoromethoxy-phenylamino)-ethyl]-4-morpholin-4-yl-4-oxo-butyramide]"
"+ (+, >10)","+++ (+++, >1000)","++ (++, >100)",< 100,–,"CC[C@@H](CNc1ccc(OC(F)(F)F)cc1)NC(=O)[C@H](CCC1CCCC1)CC(=O)N1CCOCC1 [Example 36, 2-(R)-(2-Cyclopentyl-ethyl)-4-morpholin-4-yl-4-oxo-N-{1-(S)-[(4-trifluoromethoxy-phenylamino)-methyl]-propyl}-butyramide]"
"+ (+, >10)","+++ (+++, >1000)","+ (+, >10)",–,< 100,"CC[C@@H](CNc1ccc(OC(F)(F)F)cc1)NC(=O)[C@@H](CC(=O)N1CCOCC1)CC1CCCCC1 [Example 22, 2-(R)-Cyclohexylmethyl-4-morpholin-4-yl-4-oxo-N-{1-(S)-[(4-trifluoromethoxy-phenylamino)-methyl]-propyl}-butyramide]"
